Reference: patent US20220218678A1, “USE OF 1-PHENYL-2-PYRIDINYL ALKYL ALCOHOL DERIVATIVES FOR TREATING CYSTIC FIBROSIS” (CHIESI FARMACEUTICI S.p.A., priority 2017, published 2022)

Columns and labels:
[1] = target: T1, ΔF508 CFTR (Homo sapiens, UniProt P13569, DEL508-508); assay: HS-YFP assay, CFTR corrector activity in CFBE41o− cells; type: cell-based; settings: 24 h exposure, VRT809 5 μM
T1 construct: cells expressing endogenous ΔF508-CFTR; endogenous in cells; host or cells: CFBE41o− human CF bronchial epithelial cell line (gift from D. C. Gruenert), homozygous ΔF508
From the text: The CF human bronchial epithelial cell line (CFBE41o−), homozygous for the ΔF508 mutation of the CFTR protein (Ehrhard et al., 2006, Cell Tissue Res. Vol. 323, p. 405-415; kind gift from D. C. Gruenert, California Pacific Medical Center Research Institute, San Francisco, Calif., USA) and the human bronchial epithelial cell line 16HBE14o−, wildtype (wt) for the CFTR protein (kindly provided by P. Davis, Case Western Reserve University School of Medicine, Cleveland, Ohio, USA) were maintained in EMEM (Lonza) supplemented with 10% FBS and 1% Glutamax (Sigma). […]
The CFTR activity in epithelial cells was evaluated by Yellow Fluorescence Protein (YFP) with a protocol modified from the method published by Averna et al. (PLoS One, 2013, vol. 8, e66089). […]
The potential corrector activity of roflumilast and a compound of general formula (I) (CHF6001) was evaluated in comparison with the known CFTR corrector VRT809 in the human bronchial epithelial cell line CFBE41o− (homozygous for the ΔF508 mutation of the CFTR protein) by the HS-YFP assay (FIG. 3). […]
FIG. 3. CFTR corrector activity was evaluated in CFBE41o− epithelial cell line after 24 h exposure to CFTR corrector VRT809 (5 μM), CHF6001, and Roflumilast at the indicated doses.
Values are normalized for total cell content and expressed as means±SEM (n=4) *p≤0.05 t-test (vs DMSO)

[2] = target: T2, CFTR (Homo sapiens, UniProt P13569, DEL508-508); assay: Flow cytometry, presence of CFTR epitopes on CFBE41o− cells; type: cell-based; settings: 24 h of treatment, CHF6001 30 nM, Roflumilast 50 nM
T2 construct: cells expressing endogenous ΔF508-CFTR; endogenous in cells; host or cells: CFBE41o− human CF bronchial epithelial cell line (gift from D. C. Gruenert), homozygous ΔF508
Experimental: CFBE41o− cells were seeded 1.5×10^5 cells/well into a 6 multi-well dish in EMEM medium, supplemented with 10% FBS and 1 mM L-glutamine, and maintained in incubator at 37° C. overnight. The day after, the cells were treated with different agents, as follows: VRT809 (5 μM), CHF6001 (30 nM), Roflumilast (50 nM) or the vehicle DMSO. After 24 h cells were harvested.
Specifically for detection of the extracellular domain of CFTR, the cells were washed with PBS 1× and successively stained with the anti-CFTR monoclonal antibody CF3 (Abeam), suitable for detection of the extracellular domain of CFTR. After washing, the secondary antibody goat anti-mouse (μ-chain) conjugated with Alexa Fluor-488 (Invitrogen, Carlsbad, U.S.A.) was added (1 μg for 10^6 cells) for 30 min on ice. […]
Finally cells were washed twice and then analysed at MACSQuant Analyzer (Miltenyi Biotech, Cologne, Germany), and data were analysed with FlowJo Software (Tree Star, Inc).
The percentage of events with background noise (determined with IgM isotype or peptide signal) was subtracted and the result was expressed as %-values of CFTR positive cells. Geometrical means of the signal in the green channel were also obtained and a ratio between the signals obtained with the extracellular-domain specific antibody CF3 and with the polyclonal antibody (Alomone), respectively, with respect to the baseline signal was calculated (MFI). […]

T1 sequence (P13569 with tags, fused parts or gaps DEL508-508): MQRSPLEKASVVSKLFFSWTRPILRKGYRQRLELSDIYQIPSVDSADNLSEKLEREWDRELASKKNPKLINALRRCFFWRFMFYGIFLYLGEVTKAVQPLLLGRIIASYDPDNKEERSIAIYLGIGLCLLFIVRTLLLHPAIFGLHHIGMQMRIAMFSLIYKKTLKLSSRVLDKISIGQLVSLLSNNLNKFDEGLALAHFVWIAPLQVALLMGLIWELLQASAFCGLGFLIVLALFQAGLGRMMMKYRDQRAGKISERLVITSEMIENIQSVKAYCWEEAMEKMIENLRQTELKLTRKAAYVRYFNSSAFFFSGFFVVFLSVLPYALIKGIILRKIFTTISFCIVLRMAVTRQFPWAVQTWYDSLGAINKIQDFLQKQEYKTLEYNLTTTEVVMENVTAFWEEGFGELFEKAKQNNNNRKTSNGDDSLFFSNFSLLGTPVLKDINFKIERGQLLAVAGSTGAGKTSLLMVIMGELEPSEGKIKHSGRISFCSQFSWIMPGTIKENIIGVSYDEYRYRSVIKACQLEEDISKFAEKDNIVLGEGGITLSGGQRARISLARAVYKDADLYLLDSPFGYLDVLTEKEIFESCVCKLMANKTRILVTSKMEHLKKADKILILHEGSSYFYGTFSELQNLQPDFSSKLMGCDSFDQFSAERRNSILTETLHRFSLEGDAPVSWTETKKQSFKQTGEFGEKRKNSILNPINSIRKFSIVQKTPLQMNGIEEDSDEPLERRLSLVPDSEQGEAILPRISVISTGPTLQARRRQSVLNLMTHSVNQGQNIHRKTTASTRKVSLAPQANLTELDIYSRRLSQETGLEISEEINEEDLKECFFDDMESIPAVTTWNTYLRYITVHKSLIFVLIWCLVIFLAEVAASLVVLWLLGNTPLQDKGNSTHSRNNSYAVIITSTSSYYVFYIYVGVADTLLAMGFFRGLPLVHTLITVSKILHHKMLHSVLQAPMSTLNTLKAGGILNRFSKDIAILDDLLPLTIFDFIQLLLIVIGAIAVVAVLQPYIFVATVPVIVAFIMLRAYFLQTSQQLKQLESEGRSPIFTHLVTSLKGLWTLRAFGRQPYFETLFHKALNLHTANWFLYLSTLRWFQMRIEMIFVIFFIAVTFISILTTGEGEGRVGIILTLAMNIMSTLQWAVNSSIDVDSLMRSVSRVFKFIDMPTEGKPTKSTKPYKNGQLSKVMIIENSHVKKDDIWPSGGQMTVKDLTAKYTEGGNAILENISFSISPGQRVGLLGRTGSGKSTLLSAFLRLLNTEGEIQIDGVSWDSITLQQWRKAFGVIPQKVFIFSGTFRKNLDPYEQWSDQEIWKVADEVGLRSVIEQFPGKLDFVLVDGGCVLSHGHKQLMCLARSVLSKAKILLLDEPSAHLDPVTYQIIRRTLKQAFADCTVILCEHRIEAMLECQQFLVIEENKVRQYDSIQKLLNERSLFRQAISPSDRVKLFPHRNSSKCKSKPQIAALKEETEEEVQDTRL
T2 sequence (P13569 with tags, fused parts or gaps DEL508-508): as above

SMILES	CFTR activity (corrector activity) compared with VRT809 [1]	presence of CFTR epitopes (CF3 extracellular, Alomone intracellular) [2]
O=C(Nc1c(Cl)cncc1Cl)c1ccc(OC(F)F)c(OCC2CC2)c1 [Roflumilast, 3-cyclo-propylmethoxy-4-difluoromethoxy-N-[3,5-di-chloropyrid-4-yl]-benzamide]	equal or superior to VRT809	restore the presence of CFTR epitopes
CS(=O)(=O)Nc1ccc(C(=O)OC(Cc2c(Cl)c[n+]([O-])cc2Cl)c2ccc(OC(F)F)c(OCC3CC3)c2)cc1OCC1CC1 (stereo not shown) [CHF6001, 3-Cyclopropylmethoxy-4-methanesulfonylamino-benzoic acid 1-(3-cyclopropylmethoxy-4-difluoromethoxy-phenyl)-2-(3,5-dichloro-1-oxy-pyridin-4-yl)-ethyl ester]	equal or superior to VRT809	restore the presence of CFTR epitopes
